We go through 5 molecules from patent US20210395239A1 (Hoffmann-La Roche Inc., priority 2018, published 2021).

In one series the target is T1, CYP2C9 (Homo sapiens, UniProt P11712).
T1 construct: tissue BD-Gentest 452117; host or cells: human liver microsomes
Briefly: CYP inhibition assay in human liver microsome, CYP2C9. The series is classed as in vitro ADME. Conditions: human, human liver microsomes, probe diclofenac 5 μM, substrate diclofenac 5 μM, first value of 2C9/2D6/3A4. The method in brief:
(§1)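 Pooled human liver microsomes with a substrate for each CYP were incubated with compound at 37 °C after NADPH addition, for 5 min (CYP2D6: 10 min), then quenched with acetonitrile containing labelled metabolite standards. Metabolite/internal-standard peak area ratios were measured by RapidFire MS/MS. % inhibition was scaled between DMSO and standard-inhibitor controls.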
In general terms: Liver microsomes are vesicles of endoplasmic reticulum, rich in cytochrome P450 enzymes.

Another series concerns the target T2, hERG channel (Homo sapiens, UniProt Q12809).
T2 construct: expressed in transfected cells; host or cells: CHO (Chinese hamster ovary)
The experiment in a line: hERG channel inhibition assay (patch-clamp, CHOhERG cells). The series is classed as cell-based. The settings on record: for IC20: human, CHO cells stably expressing hERG (CHOhERG); for IC20 / IC50: patch-clamp, CHOhERG cells; for hERG IC20/TLR7 IC50 / hERG IC20/TLR8 IC50 / hERG IC20/TLR9 IC50: safety ratio. The procedure, abridged: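 Whole-cell voltage-clamp recordings used CHO cells stably expressing human hERG, with IKhERG evoked by a voltage protocol at 0.1 Hz. Increasing compound concentrations were applied, each for 3–10 min to reach steady state, and current amplitude and kinetics were expressed relative to control (100%).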
For orientation: hERG is a cardiac potassium channel; its block is linked to QT prolongation.

The target in another series is T3, CYP2D6 (Homo sapiens, UniProt P10635).
T3 construct: tissue BD-Gentest 452117; host or cells: human liver microsomes
The experiment in a line: CYP inhibition assay in human liver microsome, CYP2D6. The series is classed as in vitro ADME. The settings on record: human, human liver microsomes, probe dextromethorphan 5 μM, substrate dextromethorphan 5 μM, second value of 2C9/2D6/3A4. The procedure, abridged:
as §1

T3 sequence (P10635 whole entry): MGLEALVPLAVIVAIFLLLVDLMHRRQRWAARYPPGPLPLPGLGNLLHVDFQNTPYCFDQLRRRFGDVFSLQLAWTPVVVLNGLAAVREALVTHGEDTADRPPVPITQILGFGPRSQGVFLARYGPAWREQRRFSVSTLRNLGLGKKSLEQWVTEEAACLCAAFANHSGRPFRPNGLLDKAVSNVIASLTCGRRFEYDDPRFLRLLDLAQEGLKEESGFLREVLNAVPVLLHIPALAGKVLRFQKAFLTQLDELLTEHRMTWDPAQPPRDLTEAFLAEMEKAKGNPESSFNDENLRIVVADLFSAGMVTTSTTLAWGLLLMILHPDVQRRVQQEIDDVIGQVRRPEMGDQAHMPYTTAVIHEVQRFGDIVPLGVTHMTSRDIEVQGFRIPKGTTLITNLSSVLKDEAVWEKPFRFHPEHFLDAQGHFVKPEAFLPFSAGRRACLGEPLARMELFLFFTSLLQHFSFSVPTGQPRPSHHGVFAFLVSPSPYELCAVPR
T2 sequence (Q12809 whole entry): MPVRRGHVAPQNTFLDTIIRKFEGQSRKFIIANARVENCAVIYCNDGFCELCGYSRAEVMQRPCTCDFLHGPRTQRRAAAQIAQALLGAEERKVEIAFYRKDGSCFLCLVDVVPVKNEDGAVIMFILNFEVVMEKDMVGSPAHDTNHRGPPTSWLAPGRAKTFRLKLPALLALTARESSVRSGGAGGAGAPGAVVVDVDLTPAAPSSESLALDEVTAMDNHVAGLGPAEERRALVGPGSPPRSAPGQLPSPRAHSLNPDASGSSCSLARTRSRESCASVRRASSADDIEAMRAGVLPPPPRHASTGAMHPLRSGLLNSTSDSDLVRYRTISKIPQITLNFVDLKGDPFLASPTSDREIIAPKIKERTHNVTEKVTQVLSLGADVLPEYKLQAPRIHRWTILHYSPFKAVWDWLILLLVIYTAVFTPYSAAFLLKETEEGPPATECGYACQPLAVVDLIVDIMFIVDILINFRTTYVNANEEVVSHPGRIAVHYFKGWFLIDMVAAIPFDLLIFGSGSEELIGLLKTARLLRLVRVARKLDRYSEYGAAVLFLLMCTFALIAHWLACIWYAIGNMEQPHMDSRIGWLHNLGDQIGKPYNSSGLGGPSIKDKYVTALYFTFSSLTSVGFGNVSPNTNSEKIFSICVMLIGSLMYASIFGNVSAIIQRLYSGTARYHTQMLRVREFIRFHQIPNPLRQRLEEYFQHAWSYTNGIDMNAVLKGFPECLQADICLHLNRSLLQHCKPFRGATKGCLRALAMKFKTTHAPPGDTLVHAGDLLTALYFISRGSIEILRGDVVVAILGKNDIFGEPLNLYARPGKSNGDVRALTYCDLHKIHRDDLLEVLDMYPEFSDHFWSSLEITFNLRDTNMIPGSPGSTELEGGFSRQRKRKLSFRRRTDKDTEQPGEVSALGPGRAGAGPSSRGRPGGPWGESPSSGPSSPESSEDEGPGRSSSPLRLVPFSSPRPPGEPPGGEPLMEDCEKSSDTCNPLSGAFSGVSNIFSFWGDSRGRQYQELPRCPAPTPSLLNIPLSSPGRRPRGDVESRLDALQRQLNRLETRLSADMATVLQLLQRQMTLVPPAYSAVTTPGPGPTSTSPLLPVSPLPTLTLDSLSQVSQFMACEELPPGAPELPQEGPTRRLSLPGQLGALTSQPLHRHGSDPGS
T1 sequence (P11712 whole entry): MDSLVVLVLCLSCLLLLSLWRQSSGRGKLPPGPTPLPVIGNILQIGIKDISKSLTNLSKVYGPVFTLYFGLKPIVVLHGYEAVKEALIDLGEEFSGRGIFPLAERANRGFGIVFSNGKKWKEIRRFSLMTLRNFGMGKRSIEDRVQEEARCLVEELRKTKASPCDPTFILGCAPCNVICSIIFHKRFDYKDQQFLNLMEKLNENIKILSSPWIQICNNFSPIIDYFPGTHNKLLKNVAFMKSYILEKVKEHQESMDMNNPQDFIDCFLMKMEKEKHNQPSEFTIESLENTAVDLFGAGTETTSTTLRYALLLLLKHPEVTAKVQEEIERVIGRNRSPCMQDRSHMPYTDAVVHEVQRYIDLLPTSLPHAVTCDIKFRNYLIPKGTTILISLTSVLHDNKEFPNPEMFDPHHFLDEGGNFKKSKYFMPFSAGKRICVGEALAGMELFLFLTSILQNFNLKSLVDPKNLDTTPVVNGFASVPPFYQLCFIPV

With `C[C@@H]1CN(c2ccc(C#N)n3ncc(F)c23)C[C@H](CN2CCN(c3ccc(N4C[C@H]5NCCO[C@@H]5C4)nc3)CC2)O1` [Example 168, 4-[(2S,6R)-2-[[4-[6-[(4aR,7aR)-3,4,4a,5,7,7a-hexahydro-2H-pyrrolo[3,4-b][1,4]oxazin-6-yl]-3-pyridyl]piperazin-1-yl]methyl]-6-methyl-morpholin-4-yl]-3-fluoro-pyrazolo[1,5-a]pyridine-7-carbonitrile], at CYP2C9, the inhibition at 5 min, 10 µM was -8%. Moreover, at hERG channel, the concentration for an effect of 20% (IC20) was 8.6 µM, the IC50 is over 20 µM, the “hERG IC20/TLR7 IC50” value is listed as 430 and the “hERG IC20/TLR8 IC50” value is 150. Moreover, the “hERG IC20/TLR9 IC50” value on hERG channel was 74. Besides, on CYP2D6, the inhibition at 10 min, 10 µM was 1.5%.

Turning to `C[C@@H]1CN(c2ccc(C#N)c3ncccc23)C[C@H](CN2CCN(c3cccc(NC4CNC4)n3)CC2)O1` [Example 38], the inhibition at 5 min, 10 µM on CYP2C9 stood at 20%. For the same molecule, at hERG channel, the 20% effect level (IC20) was put at 5.5 µM, the IC50 was over 20 µM, the “hERG IC20/TLR7 IC50” value is recorded as 344 and the “hERG IC20/TLR8 IC50” value is listed as 500. Further, the “hERG IC20/TLR9 IC50” value at hERG channel stood at 57. The inhibition at 10 min, 10 µM against CYP2D6 was 20.5%.

As to `C[C@@H]1CN(c2ccc(C#N)c3ncccc23)C[C@H](CN2CCN(c3cncc(N4CCNCC4)c3)CC2)O1` [Example 7, 5-[(2R,6S)-2-methyl-6-[[4-(5-piperazin-1-yl-3-pyridyl)piperazin-1-yl]methyl]morpholin-4-yl]quinoline-8-carbonitrile], the inhibition at 5 min, 10 µM against CYP2C9 came out at 2%. At hERG channel, the concentration for an effect of 20% (IC20) was over 10 µM, the IC50 was over 20 µM, the “hERG IC20/TLR7 IC50” value is over 294 and the “hERG IC20/TLR8 IC50” value is listed as over 1111. Further, the “hERG IC20/TLR9 IC50” value on hERG channel is reported as over 196. In addition, the inhibition at 10 min, 10 µM against CYP2D6 came out at 7.5%.

Turning to `C[C@@H]1CN(c2ccc(C#N)n3ncc(F)c23)C[C@H](CN2CCN(c3ccc(N[C@H]4CNC[C@H]4F)nc3)CC2)O1` [Example 167, 3-fluoro-4-[(2S,6R)-2-[[4-[6-[[(3S,4R)-4-fluoropyrrolidin-3-yl]amino]-3-pyridyl]piperazin-1-yl]methyl]-6-methyl-morpholin-4-yl]pyrazolo[1,5-a]pyridine-7-carbonitrile], the inhibition at 5 min, 10 µM against CYP2C9 is -1%. Moreover, at hERG channel, the IC20 is over 10 µM, the IC50 is over 20 µM, the “hERG IC20/TLR7 IC50” value is reported as over 714 and the “hERG IC20/TLR8 IC50” value is over 294. Further, at hERG channel, the “hERG IC20/TLR9 IC50” value is listed as over 217. Moreover, the inhibition at 10 min, 10 µM against CYP2D6 is 11.5%.

Regarding `C[C@@H]1CN(c2ccc(C#N)c3ncccc23)C[C@H](CN2CCN(c3ccnc(N4CCNCC4)n3)CC2)O1` [Example 15, 5-[(2R,6S)-2-methyl-6-[[4-(2-piperazin-1-ylpyrimidin-4-yl)piperazin-1-yl]methyl]morpholin-4-yl]quinoline-8-carbonitrile], on CYP2C9, the inhibition at 5 min, 10 µM came out at 9%. On hERG channel, the IC20 was over 10 µM, the IC50 is over 20 µM, the “hERG IC20/TLR7 IC50” value is recorded as over 1429 and the “hERG IC20/TLR8 IC50” value is recorded as over 3333. Also, the “hERG IC20/TLR9 IC50” value at hERG channel is reported as over 278. In addition, at CYP2D6, the inhibition at 10 min, 10 µM was -2.5%.

In general, inhibition refers to the change of the read-out against control, counted positive when it falls. As usually defined, the IC20 is the concentration at which the effect reaches the 20% level. Low values mean an effect from little substance, high ones a need for much substance. A word on the IC50: it is the concentration that gives 50% inhibition. Higher therefore signals weaker potency.
